The source made the active and inactive calls.
Columns and labels:
[1] = molecular target: T1, Sentrin-specific protease 7 (Homo sapiens, UniProt Q9BQF6); assay type: functional;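 note: Luminescence-based dose-response confirmation of ultra-high-throughput screening hits, measuring inhibition of SENP7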
T1 sequence (Q9BQF6 whole entry): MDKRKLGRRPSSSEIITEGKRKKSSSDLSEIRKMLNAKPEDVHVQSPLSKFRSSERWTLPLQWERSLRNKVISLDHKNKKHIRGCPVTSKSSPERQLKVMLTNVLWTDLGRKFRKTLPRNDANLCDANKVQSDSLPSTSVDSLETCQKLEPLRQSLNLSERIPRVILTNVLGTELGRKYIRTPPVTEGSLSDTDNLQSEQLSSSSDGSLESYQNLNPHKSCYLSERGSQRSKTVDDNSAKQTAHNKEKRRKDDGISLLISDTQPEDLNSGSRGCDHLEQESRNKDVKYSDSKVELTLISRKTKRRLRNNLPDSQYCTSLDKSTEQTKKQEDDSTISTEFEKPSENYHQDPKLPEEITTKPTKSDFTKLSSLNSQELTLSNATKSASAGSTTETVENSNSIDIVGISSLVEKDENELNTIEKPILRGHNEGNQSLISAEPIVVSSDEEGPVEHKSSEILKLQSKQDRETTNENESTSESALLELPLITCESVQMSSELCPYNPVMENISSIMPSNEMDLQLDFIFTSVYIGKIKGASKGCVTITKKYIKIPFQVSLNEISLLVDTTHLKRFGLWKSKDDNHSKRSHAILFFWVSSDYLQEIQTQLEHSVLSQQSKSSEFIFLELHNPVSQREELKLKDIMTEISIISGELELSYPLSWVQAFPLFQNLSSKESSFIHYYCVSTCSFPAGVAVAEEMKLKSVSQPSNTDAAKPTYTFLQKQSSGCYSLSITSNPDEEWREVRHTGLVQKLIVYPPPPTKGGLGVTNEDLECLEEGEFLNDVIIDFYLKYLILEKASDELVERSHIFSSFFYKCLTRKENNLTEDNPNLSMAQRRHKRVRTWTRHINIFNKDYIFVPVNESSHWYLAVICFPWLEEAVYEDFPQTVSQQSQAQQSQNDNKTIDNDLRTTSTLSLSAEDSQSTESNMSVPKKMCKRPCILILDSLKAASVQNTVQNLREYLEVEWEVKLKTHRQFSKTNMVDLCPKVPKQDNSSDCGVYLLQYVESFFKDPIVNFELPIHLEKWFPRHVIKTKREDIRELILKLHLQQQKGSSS

[2] = molecular target: Serine/threonine-protein phosphatase (Candida dubliniensis (strain CD36 / CBS 7987 / NCPF 3949 / NRRLY-17841) (Yeast), UniProt B9W6M3); experiment: calcineurin pathway inhibitors in yeast reporter, dose response, S. cerevisiae, CDRE-lacZ, luminescence, secondary (AID 2388); assay type: functional, cell-based;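 note: yeast reporter cells carrying a calcineurin-responsive lacZ construct stimulated with calcium chloride; luminescent beta-galactosidase reporter signal in whole cells rather than isolated phosphatase activity; potency for inhibition where a drop in reporter signal means calcineurin blockade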
HEK293 = experiment: SAR Analysis of small molecule inhibitors of T-cell specific antigen receptor-induced NF-kB activation in a HEK-293T cell line using a luminescence assay. [Related pubchem assays (depositor defined):AID435003, AID435012, AID489026]; assay type: functional, cell-based; details: Homo sapiens
[3] = growth suppression of beta-catenin-knockout colon cells, dose response, cell-based, HCT116, human colon tumor (AID 1045); assay type: functional;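 note: HCT116 colon tumor cells with beta catenin knocked out; cells exposed to compound for 60 hours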
[4] = molecular target: Protein kinase C zeta type (Homo sapiens, UniProt Q05513); assay type: functional;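 note: measured as one member of a broad kinase profiling panel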
[5] = molecular target: Phosphorylase b kinase gamma catalytic chain, liver/testis isoform (Homo sapiens, UniProt P15735); assay type: functional;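 note: PHKG2 measured as one member of a kinome-wide kinase panel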
[6] = molecular target: Serine/threonine-protein kinase PLK3 (Homo sapiens, UniProt Q9H4B4); assay type: functional
[7] = molecular target: Death-associated protein kinase 3 (Homo sapiens, UniProt O43293); assay type: functional;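 note: measured as one member of a kinome-wide profiling panel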
SRSF protein kinase 1 = SRSF protein kinase 1 (Homo sapiens, UniProt Q96SB4); assay type: functional;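 note: measured as one member of a kinome-wide kinase profiling panel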
[8] = molecular target: Calcium/calmodulin-dependent protein kinase type II subunit delta (Homo sapiens, UniProt Q13557); assay type: functional
Calcium/calmodulin-dependent protein kinase type II subunit delta, sequence (Q13557 whole entry): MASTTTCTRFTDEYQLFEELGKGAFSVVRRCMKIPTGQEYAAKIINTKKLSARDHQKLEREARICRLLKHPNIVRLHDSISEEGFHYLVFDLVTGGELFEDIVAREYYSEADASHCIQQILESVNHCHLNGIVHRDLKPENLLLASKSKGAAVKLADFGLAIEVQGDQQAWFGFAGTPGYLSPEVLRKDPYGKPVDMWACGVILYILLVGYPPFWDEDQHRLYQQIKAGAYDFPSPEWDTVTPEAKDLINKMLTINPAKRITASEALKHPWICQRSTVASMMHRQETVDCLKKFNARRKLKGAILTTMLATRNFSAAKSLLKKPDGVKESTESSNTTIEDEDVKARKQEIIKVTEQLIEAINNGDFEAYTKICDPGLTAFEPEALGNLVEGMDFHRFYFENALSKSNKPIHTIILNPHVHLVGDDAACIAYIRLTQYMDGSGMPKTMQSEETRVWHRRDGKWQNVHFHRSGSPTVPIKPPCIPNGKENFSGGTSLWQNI

[9] = molecular target: Fibroblast growth factor receptor 1 (Homo sapiens, UniProt P11362); assay type: functional
[10] = molecular target: Tyrosine-protein kinase JAK3 (Homo sapiens, UniProt P52333); assay type: functional
[11] = molecular target: Casein kinase I isoform gamma-1 (Homo sapiens, UniProt Q9HCP0); assay type: functional;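 note: measured as the CSNK1G1 member of a kinome profiling panel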
Casein kinase I isoform gamma-1, sequence (Q9HCP0 whole entry, canonical isoform): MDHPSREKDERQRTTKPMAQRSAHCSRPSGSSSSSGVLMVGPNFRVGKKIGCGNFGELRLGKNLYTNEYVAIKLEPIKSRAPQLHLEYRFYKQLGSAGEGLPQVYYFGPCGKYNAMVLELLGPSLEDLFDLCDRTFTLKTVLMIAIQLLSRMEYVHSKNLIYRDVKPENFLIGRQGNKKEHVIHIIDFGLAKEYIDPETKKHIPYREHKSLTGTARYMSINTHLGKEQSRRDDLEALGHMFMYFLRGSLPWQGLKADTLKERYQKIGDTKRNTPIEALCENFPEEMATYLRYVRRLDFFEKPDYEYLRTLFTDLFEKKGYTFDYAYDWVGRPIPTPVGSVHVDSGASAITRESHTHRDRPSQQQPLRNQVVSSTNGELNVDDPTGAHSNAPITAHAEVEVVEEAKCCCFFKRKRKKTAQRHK

[12] = molecular target: Tyrosine-protein kinase ITK/TSK (Homo sapiens, UniProt Q08881); assay type: functional;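 note: affinity for ITK measured as one member of a broad kinase panel profiling binding across the kinome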
Tyrosine-protein kinase ITK/TSK, sequence (Q08881 whole entry): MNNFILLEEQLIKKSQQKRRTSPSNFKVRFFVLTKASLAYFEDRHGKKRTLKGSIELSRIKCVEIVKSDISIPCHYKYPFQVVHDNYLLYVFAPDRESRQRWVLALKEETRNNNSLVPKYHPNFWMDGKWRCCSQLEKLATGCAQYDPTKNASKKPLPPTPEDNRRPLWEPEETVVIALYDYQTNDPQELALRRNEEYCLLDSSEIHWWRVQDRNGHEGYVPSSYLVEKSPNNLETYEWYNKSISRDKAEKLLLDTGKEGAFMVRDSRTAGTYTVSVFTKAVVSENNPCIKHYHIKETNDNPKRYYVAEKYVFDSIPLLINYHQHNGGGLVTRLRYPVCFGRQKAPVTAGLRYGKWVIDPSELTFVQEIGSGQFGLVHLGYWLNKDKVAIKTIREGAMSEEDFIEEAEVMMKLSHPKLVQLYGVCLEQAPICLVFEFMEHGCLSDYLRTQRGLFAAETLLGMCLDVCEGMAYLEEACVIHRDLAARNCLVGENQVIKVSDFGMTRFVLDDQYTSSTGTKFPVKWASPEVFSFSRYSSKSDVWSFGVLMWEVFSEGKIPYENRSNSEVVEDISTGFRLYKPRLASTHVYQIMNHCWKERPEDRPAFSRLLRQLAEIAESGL

[13] = molecular target: Protein-tyrosine kinase 2-beta (Homo sapiens, UniProt Q14289); assay type: functional
[14] = molecular target: Non-receptor tyrosine-protein kinase TYK2 (Homo sapiens, UniProt P29597); assay type: functional
[15] = molecular target: Tyrosine-protein kinase Srms (Homo sapiens, UniProt Q9H3Y6); assay type: functional;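 note: SRMS measured as one member of a kinome-wide kinase profiling panel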
Tyrosine-protein kinase Srms, sequence (Q9H3Y6 whole entry): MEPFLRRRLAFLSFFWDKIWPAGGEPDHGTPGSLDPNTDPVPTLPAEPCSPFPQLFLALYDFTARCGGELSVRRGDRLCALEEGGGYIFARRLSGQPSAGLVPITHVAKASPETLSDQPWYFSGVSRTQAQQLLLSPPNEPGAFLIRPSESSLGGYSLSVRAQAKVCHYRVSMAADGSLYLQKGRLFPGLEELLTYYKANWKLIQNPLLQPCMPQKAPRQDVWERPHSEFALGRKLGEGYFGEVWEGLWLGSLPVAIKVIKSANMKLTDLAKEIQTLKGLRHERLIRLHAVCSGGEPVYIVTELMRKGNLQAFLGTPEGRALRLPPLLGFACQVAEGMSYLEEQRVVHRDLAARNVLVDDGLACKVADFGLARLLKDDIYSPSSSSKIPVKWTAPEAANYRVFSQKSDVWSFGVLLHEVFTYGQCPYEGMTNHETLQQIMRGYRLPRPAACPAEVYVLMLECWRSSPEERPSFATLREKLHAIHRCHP

[16] = molecular target: Receptor-type tyrosine-protein kinase FLT3 (Homo sapiens, UniProt P36888); assay type: functional;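 note: FLT3 was tested as one member of a kinome-wide kinase panel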
Receptor-type tyrosine-protein kinase FLT3, sequence (P36888 whole entry): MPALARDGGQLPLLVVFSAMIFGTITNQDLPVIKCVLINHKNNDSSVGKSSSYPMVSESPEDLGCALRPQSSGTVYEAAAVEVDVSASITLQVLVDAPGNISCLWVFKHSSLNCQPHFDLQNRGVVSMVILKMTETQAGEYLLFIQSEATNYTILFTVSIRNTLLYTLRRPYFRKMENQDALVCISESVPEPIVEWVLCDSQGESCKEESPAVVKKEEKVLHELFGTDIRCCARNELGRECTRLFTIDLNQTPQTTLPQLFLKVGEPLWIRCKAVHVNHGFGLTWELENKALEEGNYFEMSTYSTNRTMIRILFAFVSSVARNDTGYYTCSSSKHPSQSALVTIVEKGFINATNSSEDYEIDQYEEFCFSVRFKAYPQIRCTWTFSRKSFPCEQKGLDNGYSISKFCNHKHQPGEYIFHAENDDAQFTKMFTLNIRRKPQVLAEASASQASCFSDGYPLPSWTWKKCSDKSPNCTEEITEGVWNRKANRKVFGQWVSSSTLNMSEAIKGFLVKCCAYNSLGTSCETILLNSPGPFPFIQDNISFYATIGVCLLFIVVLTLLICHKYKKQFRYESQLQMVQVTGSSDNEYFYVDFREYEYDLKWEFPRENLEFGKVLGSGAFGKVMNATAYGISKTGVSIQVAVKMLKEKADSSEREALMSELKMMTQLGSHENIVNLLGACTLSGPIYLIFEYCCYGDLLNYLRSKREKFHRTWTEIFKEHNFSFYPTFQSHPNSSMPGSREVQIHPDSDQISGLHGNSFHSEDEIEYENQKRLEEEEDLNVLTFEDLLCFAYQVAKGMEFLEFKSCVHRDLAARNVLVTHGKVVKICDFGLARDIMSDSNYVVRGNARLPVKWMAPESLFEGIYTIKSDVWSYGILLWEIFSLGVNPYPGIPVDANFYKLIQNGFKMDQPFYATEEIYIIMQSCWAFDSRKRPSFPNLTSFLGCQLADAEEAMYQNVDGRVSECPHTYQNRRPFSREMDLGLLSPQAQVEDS

[17] = molecular target: Serine/threonine-protein kinase Nek4 (Homo sapiens, UniProt P51957); assay type: functional
[18] = molecular target: Maternal embryonic leucine zipper kinase (Homo sapiens, UniProt Q14680); assay type: functional
[19] = molecular target: Interleukin-1 receptor-associated kinase 4 (Homo sapiens, UniProt Q9NWZ3); assay type: functional
[20] = molecular target: Cyclin-dependent kinase 19 (Homo sapiens, UniProt Q9BWU1); experiment: Navigating the Kinome. Panel member name: CDC2L6; assay type: functional
[21] = molecular target: Tyrosine-protein kinase Fyn (Homo sapiens, UniProt P06241); assay type: functional
[22] = molecular target: Serine/threonine-protein kinase pim-2 (Homo sapiens, UniProt Q9P1W9); assay type: functional;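 note: value comes from a broad kinase panel profiling study in which PIM2 was one of the panel members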
[23] = molecular target: Receptor tyrosine-protein kinase erbB-4 (Homo sapiens, UniProt Q15303); assay type: functional;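 note: ERBB4 member of a kinome-wide kinase profiling panel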
Receptor tyrosine-protein kinase erbB-4, sequence (Q15303 whole entry): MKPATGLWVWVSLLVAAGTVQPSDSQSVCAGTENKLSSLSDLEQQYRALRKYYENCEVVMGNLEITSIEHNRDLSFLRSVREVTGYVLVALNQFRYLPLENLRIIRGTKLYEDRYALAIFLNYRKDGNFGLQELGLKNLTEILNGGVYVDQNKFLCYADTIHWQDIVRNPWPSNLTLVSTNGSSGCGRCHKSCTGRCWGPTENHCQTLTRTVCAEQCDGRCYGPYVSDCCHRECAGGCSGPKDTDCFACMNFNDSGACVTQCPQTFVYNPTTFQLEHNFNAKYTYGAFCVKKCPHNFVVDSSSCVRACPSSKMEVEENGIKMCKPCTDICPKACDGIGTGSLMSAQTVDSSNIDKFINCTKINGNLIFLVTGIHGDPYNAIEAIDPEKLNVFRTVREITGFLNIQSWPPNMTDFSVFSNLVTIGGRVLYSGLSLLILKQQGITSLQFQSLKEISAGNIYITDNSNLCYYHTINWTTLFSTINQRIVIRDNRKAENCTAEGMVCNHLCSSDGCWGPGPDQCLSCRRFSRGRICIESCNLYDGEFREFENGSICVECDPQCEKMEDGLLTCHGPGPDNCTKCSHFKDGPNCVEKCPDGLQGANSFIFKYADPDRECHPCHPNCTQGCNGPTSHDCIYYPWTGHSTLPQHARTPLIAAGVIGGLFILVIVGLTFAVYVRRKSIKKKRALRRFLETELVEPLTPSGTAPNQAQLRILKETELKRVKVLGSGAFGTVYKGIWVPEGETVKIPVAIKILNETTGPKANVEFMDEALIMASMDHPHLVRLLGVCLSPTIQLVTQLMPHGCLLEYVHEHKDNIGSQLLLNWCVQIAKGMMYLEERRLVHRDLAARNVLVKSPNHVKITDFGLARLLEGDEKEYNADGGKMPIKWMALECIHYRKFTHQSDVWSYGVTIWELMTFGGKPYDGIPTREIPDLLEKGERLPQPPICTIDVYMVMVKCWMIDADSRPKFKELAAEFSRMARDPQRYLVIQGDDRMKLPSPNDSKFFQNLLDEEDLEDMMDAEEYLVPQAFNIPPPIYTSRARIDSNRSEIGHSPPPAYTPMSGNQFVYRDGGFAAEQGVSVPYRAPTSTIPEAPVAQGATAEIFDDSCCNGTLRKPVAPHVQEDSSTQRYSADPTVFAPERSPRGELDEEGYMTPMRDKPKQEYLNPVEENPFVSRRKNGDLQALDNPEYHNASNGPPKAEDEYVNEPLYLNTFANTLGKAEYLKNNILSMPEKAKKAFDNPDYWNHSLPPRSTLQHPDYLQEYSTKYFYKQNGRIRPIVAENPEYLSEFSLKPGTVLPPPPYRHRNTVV

[24] = molecular target: Mitogen-activated protein kinase 12 (Homo sapiens, UniProt P53778); assay type: functional;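 note: measured as one member of a kinome-wide kinase profiling panel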
[25] = molecular target: Lymphokine-activated killer T-cell-originated protein kinase (Homo sapiens, UniProt Q96KB5); assay type: functional;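 note: value comes from a kinase panel screen in which TOPK was one of the panel members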
[26] = molecular target: Serine/threonine-protein kinase NLK (Homo sapiens, UniProt Q9UBE8); experiment: Navigating the Kinome. Panel member name: NLK; assay type: functional
Serine/threonine-protein kinase NLK, sequence (Q9UBE8 whole entry): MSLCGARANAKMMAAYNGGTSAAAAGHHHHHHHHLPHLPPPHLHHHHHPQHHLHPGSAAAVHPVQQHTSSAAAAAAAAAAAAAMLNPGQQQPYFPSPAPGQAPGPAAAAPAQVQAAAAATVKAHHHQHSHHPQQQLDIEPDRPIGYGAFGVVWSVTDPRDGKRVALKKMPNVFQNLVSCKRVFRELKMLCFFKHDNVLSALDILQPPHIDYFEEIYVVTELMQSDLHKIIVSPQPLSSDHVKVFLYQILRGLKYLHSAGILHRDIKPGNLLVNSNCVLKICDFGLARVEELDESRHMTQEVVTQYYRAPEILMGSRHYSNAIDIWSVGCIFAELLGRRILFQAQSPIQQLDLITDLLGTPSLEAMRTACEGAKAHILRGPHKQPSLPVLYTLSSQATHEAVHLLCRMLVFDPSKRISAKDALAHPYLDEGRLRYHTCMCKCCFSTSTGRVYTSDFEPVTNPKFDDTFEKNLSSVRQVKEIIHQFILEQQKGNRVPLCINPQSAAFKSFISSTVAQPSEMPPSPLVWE

Large T antigen = Large T antigen (Simian virus 40, UniProt P03070); assay type: functional, Betapolyomavirus macacae;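 note: Confirmatory-stage PubChem screen for compounds that inhibit SV40 T antigen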
[27] = molecular target: Induced myeloid leukemia cell differentiation protein Mcl-1 (Homo sapiens, UniProt Q07820); assay type: functional

In the case of CC(=O)N(/N=C1\Sc2ccccc2C1=O)c1ccccc1C, the IC50 [1] is reported as 3.79 µM (active).
With CCCC(=O)NC(c1ccc(Cl)cc1)c1ccc2cccnc2c1O (stereo not given) the EC50 [2] was 45.4 µM (active) and the IC50 (HEK293) was 3.72 µM (active).
For Cc1ccc(-n2sc3ccccc3c2=O)cc1, the EC50 [3] was 24.4 µM (active).
For Cc1cccc(NC(=O)Nc2ccc3c(c2)CCc2sc4ncnc(N)c4c2-3)c1, the Ki [4] was > 7.94 µM (inactive), the Ki [5] was > 5.01 µM (inactive) and the Ki [6] was 2 µM (active). The Ki [7] was > 1.26 µM (inactive), the Ki (SRSF protein kinase 1) was 3.16 µM (active) and the Ki [8] was > 6.31 µM (inactive). For the same compound, the Ki [9] was 2.51 µM (active), the Ki [10] was > 1.58 µM (inactive) and the Ki [11] was 2.51 µM (active). The Ki [12] was > 1.58 µM (inactive), the Ki [13] was > 1.58 µM (inactive) and the Ki [14] was > 2 µM (inactive). For the same compound, the Ki [15] was > 1.58 µM (inactive), the Ki [16] was 0.002 µM (active) and the Ki [17] was > 6.31 µM (inactive). For the same compound, the Ki [18] was 0.794 µM (active), the Ki [19] was > 10 µM (inactive) and the Ki [20] was > 100 µM (inactive). The Ki [21] was > 0.794 µM (inactive), the Ki [22] was 0.501 µM (active) and the Ki [23] was > 3.98 µM (inactive). The Ki [24] was > 6.31 µM (inactive), the Ki [25] was 3.16 µM (active) and the Ki [26] was 0.02 µM (active).
In the case of N/C(=N\N=C/c1ccc(-c2ccc(O)c(C(=O)O)c2)o1)N[N+](=O)[O-], the IC50 (Large T antigen) is reported as 25.4 µM (active) and the IC50 [27] is reported as 3.86 µM (active).
